Laboratory results: patent US10100006B2, “Compound having immune disease treatment effect and use thereof” (THE CATHOLIC UNIVERSITY OF KOREA INDUSTRY—ACADEMIC …, priority 2014, dated 2018)

Columns and labels:
IFN-r [1] = assay: Production of inflammatory cytokines, ELISA: IFN-r, mouse spleen cells; assay type: cell-based
[2] = test system: cells in each test group disclosed in Table 3; assay: Cytotoxicity analysis (MTT assay); assay type: cell-based, mouse; human; settings: treatment for each concentration, 72 hrs; normal cells and disease-group cells; compared with control or metformin-treated group
Procedure: In order to verify whether the compounds synthesized in the present invention causes the cytotoxicity in the cells, an MTT assay was performed, target cells were divided to be the number of 2×10^5 cells per well on a 96 well plate, treated with the compounds of the present invention for each concentration, incubated for 72 hrs, added with an MTT solution (0.5% 3-4,5-dimethyl thiazol-2-yl)-2,5-diphenyl-2H-tetrazolium bromide), and incubated for 4 hrs again. Thereafter, absorbance at 540 nm was measured by an enzymelinked immunospecific assay (ELISA) meter to observe the cytotoxicity.
In order to verify whether the novel compounds synthesized in Example 1 have the cytotoxicity, a cell survival rate was verified through the MTT assay by targeting cells in each test group disclosed in Table 3 above. That is, the cells of each test group were divided according to the number of 2×10^5 cells per well and treated with the novel synthesized compounds of the present invention for each concentration, and the cell survival rate was analyzed.

IL-6 = assay: Production of inflammatory cytokines, ELISA: IL-6, mouse spleen cells; assay type: cell-based
TNF-a [3] = assay: Inflammatory gene expression, RT-PCR: TNF-a; assay type: cell-based, mouse; settings: control = 1
IgG1 = assay: Autoantibody production, sandwich ELISA: IgG1; assay type: cell-based, mouse
MMP-9 = assay: Inflammatory gene expression, RT-PCR: MMP-9; assay type: cell-based, mouse; settings: control = 1
IFN-r [4] = assay: Production of inflammatory cytokines, ELISA: IFN-r, lymphocytes of human peripheral blood; assay type: cell-based; settings: D: Lymphocytes of human peripheral blood
Procedure: (§1) Further, in a lupus-developed mouse model, a sanroque mouse used in a lupus model in the art was used and the human P.B group was used by obtaining lymphocytes from the human peripheral blood. The isolation of spleen cells and the isolation of lymphocytes from each mouse and the human peripheral blood were performed by a general method which was widely known in the art and the obtained cells were incubated for 72 h under the anti-CD3 0.5 μg/ml stimulation condition, activated, and then used.
(§2) In order to verify whether the novel compounds of the present invention have an effect on inflammation and the production of inflammatory cytokines as cause substances of the immune diseases, the inventors analyzed the production degree of IL-17, IL-6, TNF-α, IFN-γ, MMP-9, and STAT-3 and the expression degree of mRNA of these cytokines by targeting each test group. The production degree of the inflammatory cytokines was analyzed through an ELISA after obtaining a supernatant by targeting cells which were treated with the compound of the present invention and incubated, and particularly, the cells reacted with cytokine-specific antibodies anti-IL-17, anti-IL-6, anti-TNF-α, anti-IFN-γ, anti-MMP-9, and anti-STAT-3 all night at […] and then non-specific binding was blocked with a blocking solution (1% BSA/PBST). Thereafter, each biotinylated antibody was reacted at room temperature for 2 hrs, washed four times, and then reacted at room temperature for 2 hrs after diluting and adding an extravidin-alkaline phosphatase conjugate. Thereafter, a PNPP/DEA solution was added and colored, and then the absorbance was measured at a wavelength of 405 nm.

Th17 cells = assay: Inhibition of Th17 cells, flow cytometry; assay type: cell-based, mouse
Total IgG = assay: Autoantibody production, sandwich ELISA: Total IgG; assay type: cell-based, mouse
osteoclasts = assay: Inhibition of differentiation of osteoclasts, TRAP staining; assay type: cell-based, mouse; settings: M-CSF and RANKL
IgG2 = assay: Autoantibody production, sandwich ELISA: IgG2; assay type: cell-based, mouse
Treg cells = assay: Treg cell-induced activity, flow cytometry; assay type: cell-based, mouse; settings: TCR condition
STAT3 = assay: Inflammatory gene expression, RT-PCR: STAT3; assay type: cell-based; settings: A: Normal mouse cells; control = 1
IL-17 [5] = assay: Production of inflammatory cytokines, ELISA: IL-17, mouse spleen cells; assay type: cell-based
IL-17 [6] = assay: Production of inflammatory cytokines, ELISA: IL-17, lymphocytes of human peripheral blood; assay type: cell-based; settings: D: Lymphocytes of human peripheral blood
Procedure: as §1, §2

TNF-a [7] = assay: Production of inflammatory cytokines, ELISA: TNF-a, mouse spleen cells; assay type: cell-based
[8] = TCR condition, A: Normal mouse cells
[9] = TCR condition, B: Rheumatoid arthritis cells
[10] = Th17 condition (Th17 differentiation condition), A: Normal mouse cells

| SMILES | IFN-r production (IFN-r [1]; A: Normal mouse cells) [ng/mL] | IFN-r production (IFN-r [1]; B: Rheumatoid arthritis cells) [ng/mL] | IFN-r production (IFN-r [1]; C: Lupus cells) [ng/mL] | cytotoxicity (cell survival rate, MTT) [2] | IL-6 production (IL-6; A: Normal mouse cells) [ng/mL] | IL-6 production (IL-6; B: Rheumatoid arthritis cells) [ng/mL] | IL-6 production (IL-6; C: Lupus cells) [ng/mL] | TNF-a gene expression (TNF-a [3]; A: Normal mouse cells) [gene expression] | TNF-a gene expression (TNF-a [3]; B: Rheumatoid arthritis cells) [gene expression] | TNF-a gene expression (TNF-a [3]; C: Lupus cells) [gene expression] | IgG1 (IgG1; A: Normal mouse cells) [ng/mL] | IgG1 (IgG1; B: Rheumatoid arthritis cells) [ng/mL] | IgG1 (IgG1; C: Lupus cells) [ng/mL] | MMP-9 gene expression (MMP-9; A: Normal mouse cells) [gene expression] | MMP-9 gene expression (MMP-9; B: Rheumatoid arthritis cells) [gene expression] | MMP-9 gene expression (MMP-9; C: Lupus cells) [gene expression] | IFN-r production (IFN-r [4]) [ng/mL] | Th17 (Th17 cells; [8]) | Th17 (Th17 cells; [10]) | IL-17 production (IL-17 [6]) [ng/mL] | other results |
| --- | --- | --- | --- | --- | --- | --- | --- | --- | --- | --- | --- | --- | --- | --- | --- | --- | --- | --- | --- | --- | --- |
| CCN(C(=N)NC(=N)N)c1ccc(F)c(F)c1 [SD-281, N-(3,4-Difluorophenyl)-N-ethylbiguanide] | 5.8 | 5.3 | 10 | cytotoxicity was not observed | 1.4 | 1.4 | 1 | 0.2 | 0.6 | 0.1 | 83.8 | 135.2 | 258.2 | 0.5 | 0.4 | 0.4 | 0.1 | 1.2 | 0.4 | 0.1 | Th17 (Th17 cells; [9]): 1.5; Th17 (Th17 cells; TCR condition, C: Lupus cells): 0.8; Total IgG (Total IgG; A: Normal mouse cells): 2.3 ng/mL; Total IgG (Total IgG; B: Rheumatoid arthritis cells): 58.1 ng/mL; Total IgG (Total IgG; C: Lupus cells): 124.5 ng/mL; TRAP + Cell (osteoclasts; A: Normal mouse cells): 196; TRAP + Cell (osteoclasts; B: Rheumatoid arthritis cells): 57; IgG2 (IgG2; A: Normal mouse cells): 35.6 ng/mL; IgG2 (IgG2; B: Rheumatoid arthritis cells): 33.5 ng/mL; IgG2 (IgG2; C: Lupus cells): 84.3 ng/mL; Treg (Treg cells; A: Normal mouse cells): 2; Treg (Treg cells; B: Rheumatoid arthritis cells): 4.6; Treg (Treg cells; C: Lupus cells): 2.8; STAT3 gene expression (STAT3): 1.2 gene expression; IL-17 production (IL-17 [5]; A: Normal mouse cells): 1.7 ng/mL; IL-17 production (IL-17 [5]; B: Rheumatoid arthritis cells): 2.2 ng/mL; IL-17 production (IL-17 [5]; C: Lupus cells): 0.6 ng/mL; TNF-a production (TNF-a [7]; A: Normal mouse cells): 0.5 ng/mL; TNF-a production (TNF-a [7]; B: Rheumatoid arthritis cells): 0.4 ng/mL; TNF-a production (TNF-a [7]; C: Lupus cells): 0.7 ng/mL |
| CCN(C(=N)NC(=N)N)c1ccc(F)cc1 [SD-282, N-Ethyl-N-(4-fluorophenyl) biguanide] | 3.3 | 2.9 | 7.6 | cytotoxicity was not observed | 1.3 | 1.3 | 1 | 0.07 | 0.06 | 0.8 | 1 | 218.7 | 425.4 | 0.1 | 0.08 | 1.3 | 0.1 | 1.2 | 0.5 | 0.1 | Th17 (Th17 cells; [9]): 1.5; Th17 (Th17 cells; TCR condition, C: Lupus cells): 0.9; Total IgG (Total IgG; A: Normal mouse cells): 0.7 ng/mL; Total IgG (Total IgG; B: Rheumatoid arthritis cells): 60.3 ng/mL; Total IgG (Total IgG; C: Lupus cells): 127.7 ng/mL; TRAP + Cell (osteoclasts; A: Normal mouse cells): 157; TRAP + Cell (osteoclasts; B: Rheumatoid arthritis cells): 89; IgG2 (IgG2; A: Normal mouse cells): 37.1 ng/mL; IgG2 (IgG2; B: Rheumatoid arthritis cells): 38.3 ng/mL; IgG2 (IgG2; C: Lupus cells): 110.9 ng/mL; Treg (Treg cells; A: Normal mouse cells): 2.5; Treg (Treg cells; B: Rheumatoid arthritis cells): 4.6; Treg (Treg cells; C: Lupus cells): 2.9; STAT3 gene expression (STAT3): 0.6 gene expression; IL-17 production (IL-17 [5]; A: Normal mouse cells): 1.7 ng/mL; IL-17 production (IL-17 [5]; B: Rheumatoid arthritis cells): 2.1 ng/mL; IL-17 production (IL-17 [5]; C: Lupus cells): 0.6 ng/mL; TNF-a production (TNF-a [7]; A: Normal mouse cells): 0.4 ng/mL; TNF-a production (TNF-a [7]; B: Rheumatoid arthritis cells): 0.4 ng/mL; TNF-a production (TNF-a [7]; C: Lupus cells): 0.7 ng/mL |
| CN(C(=N)NC(=N)N)c1ccc(F)cc1F [SD-284, N-(2,4-Difluorophenyl)-N-methylbiguanide] |  |  |  | cytotoxicity was not observed |  |  |  |  |  |  |  |  |  |  |  |  | 0.08 |  | 2 | 0.1 | IFN-r production (IFN-r [1]; Table 6, normal mouse cells): 4.9 ng/mL; IL-6 production (IL-6; Table 6, normal mouse cells): 0.7 ng/mL; IL-17 production (IL-17 [5]; Table 6, normal mouse cells): 6.5 ng/mL; TNF-a production (TNF-a [7]; Table 6, normal mouse cells): 0.5 ng/mL |
